What all share (format): cell-based, Saccharomyces cerevisiae
Experiment [1] relates to S. cerevisiae PB1X-9B(pRS202). Kind of experiment: Peptide transport assay, accumulation of KLG-[3H]L, PB1X-9B(pRS202). The method, then:
(§1) To determine if S. cerevisiae transformants harboring pOPT1 could accumulate a radiolabeled tetrapeptide, uptake assays were performed with the radiolabeled substrate KLG-[^3H]L SEQ ID NO:7 with cells grown to log phase in SC-Ura with either ammonium sulfate or 0.1% proline as a nitrogen source. […] This higher initial rate can be explained by overexpression due to high copy number or alternatively by the lack of requisite regulatory elements which may be absent in the heterologous host.
Uptake of KLG-[^3H]L SEQ ID NO:7 was determined using a protocol for uptake of dipeptides as described by Basrai et al. (1995) with a few modifications. S. cerevisiae cultures were grown overnight to exponential phase in SC-Ura medium. Cells were harvested by centrifugation, and resuspended in 2% glucose at a cell density of 2×10^8 cells/ml. […] The yeast cells retained on the filter were washed twice with ice-cold distilled water, once with room temperature distilled water, and the residual radioactivity was measured by liquid scintillation. […] The uptake results, calculated on the basis of 50% counting efficiency (determined using L-[^3H]lysine as a standard, and the specific activity of the peptide), were expressed as nmol of peptide uptake per minute per mg cell dry weight.

Experiment [2] deals with S. cerevisiae PB1X-9B(pOPT1). To be noted: ammonium sulfate as nitrogen source; 0.38 μmoles per 6 mm disk; 24-48 hr. As to the method:
(§2) S. cerevisiae PB1X-9B is sensitive to the toxic amino acid ethionine Eth) but is resistant to ethionine containing di-, tri-, tetra-, and pentapeptides. Disk sensitivity assays was utilized to determine if cells transformed with pOPT1 were sensitive to toxic peptides and whether this sensitivity was dependent upon nitrogen source.
(§3) Sensitivity to ethionine, a toxic methionine analog, and ethionine-containing peptides was determined by the method described by Island et al. (1987). Cells were grown overnight to exponential phase of growth in SC, washed, and resuspended at 5×10^6 cells /ml in sterile water. One ml of this cell suspension was added to 3 ml molten Noble agar (0.8% final concentration) and overlayed on 20 ml of the same medium used to prepare the inoculum. A disk (6 mm diameter, Difco) was placed on the plate and 0.38 μmoles of the compounds to be tested were applied to the disks. Zones of inhibition were measured after 24-48 hr incubation at 30 iC. Each test comprised at least three independent assays and the results represented in the Tables are means of the values obtained. Maximum variation between the zones of inhibition measured for each test were ^23 mm. A value of 7 mm for the diameter of zone of inhibition represents a minimal growth inhibition value as the disk diameter was 6 mm. Photodocumentation of sensitivity assays was done with a Umax Scanner and processed through Adobe Photoshop.

The subject of the next experiment is S. cerevisiae PB1X-9B. Kind of experiment: Sensitivity of untransformed S. cerevisiae PB1X-9B to ethionine and ethionine peptides. The method, then:
as §2
as §3, with “Photodocumentation of sensitivity assays was done with a Umax Scanner and processed through Adobe Photoshop.” left out

For experiment [3], the system named is S. cerevisiae PB1X-9B(pOPT1). In words: Peptide transport assay, accumulation of KLG-[3H]L, PB1X-9B(pOPT1). As to the method:
as §1
Uptake of KLG-[^3H]L SEQ ID NO:7 was determined using a protocol for uptake of dipeptides as described by Basrai et al. (1995) with a few modifications. S. cerevisiae cultures were grown overnight to exponential phase in SC-Ura medium. Cells were harvested by centrifugation, and resuspended in 2% glucose at a cell density of 2×10^8 cells/ml. Two hundred and fifty microliters of cell suspension were added to an equal volume of an uptake assay reaction mixture and incubated at 30iC. The final concentrations of the components in the uptake assay solution were: glucose (2%, w/v), 10 mM sodium citrate/potassium phosphate buffer (pH 5.0), and KLG-[^3H]L SEQ ID NO:7 (150 μM; 8.5 mCi/mmol). Competition experiments were done in the presence of either 1.5 mM L, KL, KLG, KLLG SEQ ID NO:6, or KLLLG SEQ ID NO:8. At various time points, 90 μl portions were removed and filtered through a membrane. The yeast cells retained on the filter were washed twice with ice-cold distilled water, once with room temperature distilled water, and the residual radioactivity was measured by liquid scintillation. There was no peptide adsorption to the cell surface or sticking to filters since at 0i C the counts were at background level. The uptake results, calculated on the basis of 50% counting efficiency (determined using L-[^3H]lysine as a standard, and the specific activity of the peptide), were expressed as nmol of peptide uptake per minute per mg cell dry weight.

Where [4] appears, read: cells grown in SC with ammonium sulfate, 150 μM substrate.

From patent US6441134B1, “Isolated Candida albicans oligopeptide transporter gene” (The University of Tennessee Research Corporation, dated 2002) come the findings set out here.

Non-standard residues stand in square brackets, D forms with d. Residues, ends and D or L forms follow the SMILES beside them. No end group written: not given here.

Turning to `CC(C)C[C@H](NC(=O)CNC(=O)[C@H](CC(C)C)NC(=O)[C@@H](N)CCCCN)C(=O)O` [KLGL, Lysyl-Leucyl-Glycyl-Leucine] (H-KLGL-OH), in experiment [1] (cells grown in SC-Ura with 0.1% proline), the accumulation of tetrapeptide result is given as “did accumulate”.

For the compound `CCSCC[C@H](N)C(=O)O` [ethionine, Ethionine], the “zone of growth inhibition” value in experiment [2] is reported as 33 mm. For the same compound, the “sensitivity / resistance of the strain” value in the experiment on S. cerevisiae PB1X-9B is on record as “sensitive”.

Regarding “Lys-Leu-Gly-[^3H]Leu (KLG[3H‑Leu]) [KLG-[^3H]L]”, the “uptake rate of KLG-[3H]L, no competitor” value in experiment [3] (SC-Ura with ammonium sulfate, 150 μM substrate, best fit of slope over 12 min) is given as 0.24 nm/min/mg of dry weight. Moreover, the “initial rate of uptake compared to C. albicans SC5314” value in experiment [3] (both grown in SC with ammonium sulfate) is listed as “higher initial rate of uptake”. Further, in experiment [3] (setting [4]), the “uptake rate of radiolabeled tetrapeptide” value is reported as “significant uptake rate”. Besides, the “initial uptake rate, PB1X-9B(pOPT1) relative to PB1X-9B(pRS202)” value in experiment [3] (growth media with proline as nitrogen source) is reported as 2.5 times. For the same compound, in experiment [1] (setting [4]), the “uptake of radiolabeled tetrapeptide” value is “no uptake”.
